Test results taken from US20230258642A1, “COMPOSITIONS AND METHODS FOR IDENTIFICATION OF MODULATORS OF RAS PROTEIN COMPLEXES” (QUANTA THERAPEUTICS, INC., priority 2020, published 2023).
Blank lines part the entries; values can stand above or below the compound they belong to.

Key:
Annexin V = molecular target: T1, Annexin V (Homo sapiens, UniProt P08758); test: Annexin V counter-screen SHG assay on phosphatidyl serine surface; assay type: binding
T1 sequence (P08758 1-320): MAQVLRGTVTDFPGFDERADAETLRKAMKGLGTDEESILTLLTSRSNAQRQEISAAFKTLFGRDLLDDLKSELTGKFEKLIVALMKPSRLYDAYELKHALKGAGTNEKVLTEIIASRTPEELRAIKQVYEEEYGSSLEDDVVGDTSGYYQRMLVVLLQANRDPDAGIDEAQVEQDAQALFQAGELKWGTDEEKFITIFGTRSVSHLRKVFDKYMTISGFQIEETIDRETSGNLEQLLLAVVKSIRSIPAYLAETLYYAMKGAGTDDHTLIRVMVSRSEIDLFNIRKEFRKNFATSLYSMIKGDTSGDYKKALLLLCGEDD
Excerpt: Annexin V binds to phosphatidyl serine membrane like KRAS^G12D-FMe in a calcium-dependent manner. However, Annexin V is structurally unrelated to KRAS/RAF1 complex. Addition of EDTA, a chelation agent, results in >80% decrease in SHG signal due to loss of Annexin V protein from the phosphatidyl serine surface. […] This assay was established as a counter-screen assay to the KRAS^G12D-FMe+SH-active RAF1^RBDCRD interaction, allowing detection of false-positives due to metal chelation or non-specific protein binding.

[1] = molecular target: T2, KRAS^G12D-FMe+RAF1^RBDCRD-SHG2 complex (Homo sapiens, UniProt P01116, G12D); test: SHG complex assay: KRAS^G12D-FMe + SH-active RAF1^RBDCRD complex tethered to a PS bilayer; assay type: binding; conditions: complex tethered overnight in the presence of 1 mM GDP
T2 construct: 1; farnesyl and carboxymethyl modification (FMe) at the C-terminal Cys
Protocol: Factors contributing towards maximizing the complex SHG signal compared to bilayer-tethered KRAS^G12D-FMe alone were further optimized in order to develop a robust screening assay that would allow the separation of real conformational modulators from the baseline signal noise. Accordingly, a pre-formed complex was tethered to the bilayer and the baseline SHG intensity of the complex was compared to each individual component.
In comparison, each protein component was incubated on the PS bilayer to make sure the SHG signal generated by the complex was distinct from any signal produced by the individual components (FIG. 3B). The PS bilayer alone produced a baseline SHG signal around 6000. […]
Since RAF1 binding to KRAS is nucleotide dependent, the SHG signal change was monitored in the presence of 10 mM EDTA and 1 mM GDP. […] The SHG response to this control reinforced that the detected complex signal behaves according to its characterized biology.
A beam from a Ti:S femtosecond laser is used as the fundamental according to procedures known to those skilled in the art. […] Second harmonic light generated by the surface is collected, filtered from the fundamental, and detected by a photomultiplier tube (PMT) according to procedures known to those skilled in the art. A baseline signal with declining intensity due to photobleaching is recorded. […]

SHG response upon addition to Annexin V (Annexin V): dose-dependent SHG response
SMILES: COc1ccc2c(c1)CN(C(=O)CCN1CCC(Cc3ccccc3)CC1)CCS2 [K201]

complex SHG signal [1]: no complex SHG signal was detected
SMILES: Nc1nc2c(ncn2[C@@H]2O[C@H](COP(=O)(O)OP(=O)(O)O)[C@@H](O)[C@H]2O)c(=O)[nH]1 [GDP]

decrease in SHG signal (loss of Annexin V from phosphatidyl serine surface) (Annexin V): > 80%
SMILES: O=C(O)CN(CCN(CC(=O)O)CC(=O)O)CC(=O)O [EDTA]
